# From patent US9546362B2 (priority 2011, dated 2017)
# Read-outs that look alike come from different tables or passages of the source.
# B1: CsHCS1: Cannabis sativa hexanoyl-CoA synthetase 1, alkanoyl-CoA synthetase, SEQ ID NO: 2 (protein, listed as Cannabis sativa)
# chain: MGKNYKSLDSVVASDFIALGITSEVAETLHGRLAEIVCNYGAATPQTWINIANHILSPDLPFSLHQMLFYGCYKDFGPAPPAWIPDPEKVKSTNLGALLEKRGKEFLGVKYKDPISSFSHFQEFSVRNPEVYWRTVLMDEMKISFSKDPECILRRDDINNPGGSEWLPGGYLNSAKNCLNVNSNKKLNDTMIVWRDEGNDDLPLNKLTLDQLRKRVWLVGYALEEMGLEKGCAIAIDMPMHVDAVVIYLAIVLAGYVVVSIADSFSAPEISTRLRLSKAKAIFTQDHIIRGKKRIPLYSRVVEAKSPMAIVIPCSGSNIGAELRDGDISWDYFLERAKEFKNCEFTAREQPVDAYTNILFSSGTTGEPKAIPWTQATPLKAAADGWSHLDIRKGDVIVWPTNLGWMMGPWLVYASLLNGASIALYNGSPLVSGFAKFVQDAKVTMLGVVPSIVRSWKSTNCVSGYDWSTIRCFSSSGEASNVDEYLWLMGRANYKPVIEMCGGTEIGGAFSAGSFLQAQSLSSFSSQCMGCTLYILDKNGYPMPKNKPGIGELALGPVMFGASKTLLNGNHHDVYFKGMPTLNGEVLRRHGDIFELTSNGYYHAHGRADDTMNIGGIKISSIEIERVCNEVDDRVFETTAIGVPPLGGGPEQLVIFFVLKDSNDTTIDLNQLRLSFNLGLQKKLNPLFKVTRVVPLSSLPRTATNKIMRRVLRQFSHFE
# Assays:
# CsHCS2 [1] = biological target: T1, CsHCS2 (Cannabis sativa, UniProt A0A7J6I5X8)
# T1 sequence (A0A7J6I5X8 entry or part of it): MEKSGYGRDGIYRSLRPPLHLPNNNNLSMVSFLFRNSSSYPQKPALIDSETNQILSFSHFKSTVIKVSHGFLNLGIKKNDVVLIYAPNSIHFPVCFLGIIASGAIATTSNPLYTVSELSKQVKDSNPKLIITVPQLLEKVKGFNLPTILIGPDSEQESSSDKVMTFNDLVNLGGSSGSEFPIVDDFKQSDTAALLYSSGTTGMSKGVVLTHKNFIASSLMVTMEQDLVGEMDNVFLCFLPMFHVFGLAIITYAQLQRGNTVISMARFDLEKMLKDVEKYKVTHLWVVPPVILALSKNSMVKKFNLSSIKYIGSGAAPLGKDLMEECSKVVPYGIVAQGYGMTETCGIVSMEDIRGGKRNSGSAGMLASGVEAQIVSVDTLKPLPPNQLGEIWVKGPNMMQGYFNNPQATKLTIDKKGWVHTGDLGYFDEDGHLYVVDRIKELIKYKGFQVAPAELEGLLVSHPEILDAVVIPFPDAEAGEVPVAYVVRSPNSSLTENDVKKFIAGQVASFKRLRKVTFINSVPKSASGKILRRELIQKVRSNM
# Experimental: The reactions were incubated for 10 min at 40° C., terminated with 2 μL of 1 N HCl and stored on ice until analysis.
# The reaction mixtures were diluted 1:100 with water and subsequently separated using a Waters Acquity UPLC system fitted with an Acquity UPLC BEH C18 column (1.7 μm particle size, 2.1×50 mm column), and analyzed by MS/MS using a Micromass Quattro Ultima triple-quadrupole mass spectrometer. The solvent system used was buffer A: 5 mM TEA and 3 mM acetic acid in water, and buffer B: 5 mM TEA and 3 mM acetic acid in 95:5 methanol:water. The mass spectrometer settings were: ESI positive mode, collision energy 27 V, cone 135 V, scanning for 866>359 transitions.
# CsHCS2 [2] = biological target: T1, CsHCS2; test: Kinetic properties, separate experiment (Table 5); assay type: biochemical
# CsHCS1 [3] = biological target: T2, CsHCS1 (Cannabis sativa, UniProt H9A1V3, DEL715-715); test: biochemical
# CsHCS1 [4] = biological target: T2, CsHCS1; test: Hexanoyl-CoA synthetase activity (LC-MS/MS); assay type: biochemical; set-up: His8 (pHIS8/GW vector) (N); made in house; host or cells: E. coli Rosetta 2
# CsHCS1 [5] = biological target: T2, CsHCS1; details: CsHCS1, Table 5
# CsHCS2 [6] = biological target: T1, CsHCS2; test: Carboxylic acid substrate range, luciferin/luciferase measurement of unconsumed ATP; assay type: biochemical; details: CsHCS2, 500 μM carboxylic acid, 50 μM ATP, 3 h at 29° C., FIG. 3B
# Experimental: (§1) To test the range of carboxylic acids that CsHCS1 and CsHCS2 can activate, enzyme assays were performed with a broad range of carboxylic acids and limiting ATP. The assay conditions used were similar to Schneider K et al. (2005). A new type of peroxisomal acyl-coenzyme A synthetase from Arabidopsis thaliana has the catalytic capacity to activate biosynthetic precursors of jasmonic acid. The Journal of Biological Chemistry, 280:13962-72. […] All carboxylic acid substrates were dissolved in 2% v/v Triton™ X-100, leading to a final concentration 0.05% Triton X-100 in the assay. After reacting for 3 h at 29° C., 10 μL aliquots of the reactions were transferred to 96-well plates for a luciferin/luciferase based measurement of unconsumed ATP. The plates were analyzed with a 1420 Multilabel counter (PerkinElmer). To each well, 90 μL of a solution containing 100 mM Tris pH 7.8, 1 mM MgCl2, 2.3 μg luciferin, and 0.5 μg of luciferase was injected, and after shaking for 2 seconds the luminescence was measured for 15 seconds without a filter in place. Lower readings, compared to the reactions with no carboxylic acid substrate, indicate a higher amount of enzymatic activity and therefore substrate utilization. The results are shown in FIG. 3, wherein error bars represent the percent error of the ratio, n=3.
# CsHCS1 [7] = biological target: T2, CsHCS1; test: as above; assay type: biochemical; set-up: His8 (pHIS8/GW vector) (N); made in house; host or cells: E. coli Rosetta 2; details: CsHCS1, 500 μM carboxylic acid, 50 μM ATP, 3 h at 29° C., FIG. 3A
# Experimental: as §1
# [8] = test system: CC(C)(COP(=O)(O)OP(=O)(O)OC[C@H]1O[C@@H](n2cnc3c(N)ncnc32)[C@H](O)[C@@H]1OP(=O)(O)O)[C@@H](O)C(=O)NCCC(=O)NCCS; test: purified protein, by the assay type
# CCCCCC(=O)O [9] = test: purified protein, by the assay type; details: other: CsHCS1, Table 5
# CCCCCCCCCC(=O)O = test: purified protein, by the assay type; details: other: CsHCS1, Table 5
# CCCCCC(=O)O [10] = test: purified protein, by the assay type; assay type: biochemical, Cannabis sativa; details: other: CsHCS1, substrate hexanoate; pH 9.0; 40.0 °C
# [11] = test system: olivetolic acid synthesis; test: Coupled enzymatic assay for olivetolic acid synthesis (CsHCS2, MCS, olivetol synthase/PKS, OAS); assay type: biochemical, Cannabis sativa; details: 0.3 μg CsHCS2, 4 mM hexanoate, room temperature, 16 h, FIG. 4
# Experimental: Eluted compounds were detected by absorbance at 263 nm and identified both by having the same retention times as isolated standards, and by their mass using a single quadrapole mass detector. […] HTAL=hexanoyltriacetic lactone, PDAL=pentyldiacetic lactone, OA=olivetolic acid, OL=olivetol.
# The reaction was incubated at room temperature for 16 h, acidified and extracted in ethyl acetate. The polar fraction was recovered, evaporated to dryness and resuspended in 50 μL of methanol. An aliquot (5 μL) was analyzed by LCMS, and products were identified by their retention times and masses (see FIG. 4).
molecule,measurement,setting,value
[Ca+2] [Ca^2+],activity with divalent cation,CsHCS2 [1],to a lesser extent
"CC(C)(COP(=O)(O)OP(=O)(O)OC[C@H]1O[C@@H](n2cnc3c(N)ncnc32)[C@H](O)[C@@H]1OP(=O)(O)O)[C@@H](O)C(=O)NCCC(=O)NCCS [CoA, coenzyme A]",inhibition of CsHCS2,CsHCS2 [2],did not inhibit
same,Ki,CsHCS1 [3],5.1 ± 1.8 mM
[Co+2] [Co^2+],activity with divalent cation,CsHCS2 [1],highest
[Mg+2] [Mg^2+],use of divalent cation,"CsHCS1 [4]; CsHCS1, range of divalent cations tested",optimally used
same,activity with divalent cation,CsHCS2 [1],high
[Mn+2] [Mn^2+],activity with divalent cation,CsHCS2 [1],high
CCCC(=O)O [butanoate],Km,CsHCS2 [2]; read-out: Km,> 10000 µM
same,Km,CsHCS1 [5],> 10 mM
O=C(O)/C=C/c1ccccc1 [cinnamate],utilization as substrate,CsHCS2 [6],able to utilize
CCCCCCCCCC(=O)O [decanoate],Ki,CsHCS2 [2],121 ± 47.9 µM
same,Km,"CsHCS2 [2]; CsHCS2, Table 5",16.1 ± 5.8 µM
CCCCCCCC(=O)O [octanoate],utilization as substrate,CsHCS1 [7],utilize
O=C(O)/C=C/c1ccc(O)cc1 [p-coumarate],utilization as substrate,CsHCS2 [6],to a lesser extent
CCCCC(=O)O [valerate],utilization as substrate,CsHCS1 [7],to a lesser extent
CsHCS1 (Cannabis sativa; DEL715-715),Km,"[8]; other: CsHCS1, Table 5",0.26 ± 0.05 μM μM
same,Km,CCCCCC(=O)O [9],3.7 ± 0.7 mM mM
same,Km,CCCCCCCCCC(=O)O,1.7 ± 0.2 mM mM
same,Km,CCCCCC(=O)O [10],6.1 ± 1.0 mM
same,Vmax,CCCCCC(=O)O [10],15.6±1.7 pKat
same,kcat,CCCCCC(=O)O [10],4.5 s⁻¹
CsHCS2 (Cannabis sativa),Km,"[8]; other: CsHCS2, Table 5",0.16 ± 0.01 μM μM
"CsHCS2: Cannabis sativa hexanoyl-CoA synthetase 2, alkanoyl-CoA synthetase, SEQ ID NO: 4",supply of hexanoyl-CoA for olivetolic acid synthesis,[11],capable of providing sufficient hexanoyl-CoA substrate for the synthesis of olivetolic acid
same,pH optimum,CsHCS2 [1],9
same,temperature optimum,CsHCS2 [1],40 °C
B1,pH optimum,CsHCS1 [4]; enzyme CsHCS1,9
same,temperature optimum,CsHCS1 [4]; enzyme CsHCS1,40 °C
